For the experiment, the target named is human GLP-1R (Homo sapiens, UniProt P43220, G168S). Description: CHO GLP-1R Clone H6—Assay 1: HTRF cAMP cell-based functional agonist assay (high GLP-1R density). The settings on record: for EC50: read-out: Assay 1 EC50, CHO GLP-1R Clone H6, cAMP HTRF, geometric mean; for Emax: read-out: Assay 1 Emax (%), CHO GLP-1R Clone H6, relative to saturating concentration of full agonist GLP-1 (1 μM), arithmetic mean. (TR-FRET usually uses a lanthanide donor and a delayed reading to cut background.)
Sequence of human GLP-1R (P43220 24-463 G168S limits assumed): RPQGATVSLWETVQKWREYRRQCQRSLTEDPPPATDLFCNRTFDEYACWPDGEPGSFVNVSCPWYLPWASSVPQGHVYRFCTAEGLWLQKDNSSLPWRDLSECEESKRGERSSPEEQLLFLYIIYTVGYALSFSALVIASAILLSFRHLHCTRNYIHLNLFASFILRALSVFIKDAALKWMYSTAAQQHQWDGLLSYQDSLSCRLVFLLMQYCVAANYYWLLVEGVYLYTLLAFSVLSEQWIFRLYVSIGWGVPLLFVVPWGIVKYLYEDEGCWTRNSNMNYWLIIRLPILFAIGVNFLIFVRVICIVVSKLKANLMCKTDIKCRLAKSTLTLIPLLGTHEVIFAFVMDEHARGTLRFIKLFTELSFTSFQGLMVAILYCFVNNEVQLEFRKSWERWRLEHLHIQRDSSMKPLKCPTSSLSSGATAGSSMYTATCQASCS

By EC50 is commonly meant the concentration needed to bring the measured effect to its halfway point. What is called Emax is the maximal effect, on the per cent scale that the assay sets. `Cc1cc(Cn2c(CN3CCC(c4cccc(OCc5ccc(Cl)cc5F)n4)CC3)nc3ccc(C(=O)O)cc32)no1` [Example 11A-35, 2-[(4-{6-[(4-chloro-2-fluorobenzyl)oxy]pyridin-2-yl}piperidin-1-yl)methyl]-1-[(5-methyl-1,2-oxazol-3-yl)methyl]-1H-benzimidazole-6-carboxylic acid]: the EC50 was found to be 0.11 µM and the Emax is 74%.

For the compound `Cn1cc(Cn2c(CN3CCC(c4cccc(OCc5ccc(Cl)cc5F)n4)CC3)nc3ccc(C(=O)O)cc32)nn1` [Example 11A-36, 2-[(4-{6-[(4-chloro-2-fluorobenzyl)oxy]pyridin-2-yl}piperidin-1-yl)methyl]-1-[(1-methyl-1H-1,2,3-triazol-4-yl)methyl]-1H-benzimidazole-6-carboxylic acid], the EC50 stood at 0.11 µM and the Emax was found to be 79%.

With `COCCCn1c(CN2CCC(c3cccc(OCc4ccc(Cl)cc4F)n3)CC2)nc2ccc(C(=O)O)cc21` [Example 11A-38, 2-[(4-{6-[(4-chloro-2-fluorobenzyl)oxy]pyridin-2-yl}piperidin-1-yl)methyl]-1-(3-methoxypropyl)-1H-benzimidazole-6-carboxylic acid], the EC50 amounted to 0.12 µM and the Emax is 80%.

For `CCn1ccnc1Cn1c(CN2CCC(c3cccc(OCc4ccc(Cl)cc4F)n3)CC2)nc2ccc(C(=O)O)cc21` [Example 11A-39, 2-[(4-{6-[(4-chloro-2-fluorobenzyl)oxy]pyridin-2-yl}piperidin-1-yl)methyl]-1-[(1-ethyl-1H-imidazol-2-yl)methyl]-1H-benzimidazole-6-carboxylic acid], the EC50 was 0.13 µM and the Emax came out at 80%.

In the case of `O=C(O)c1ccc2nc(CN3CCC(c4cccc(OCc5ccc(Cl)cc5F)n4)CC3)n(CC3CCCOC3)c2c1` (stereo not drawn) [Example 11A-40, 2-[(4-{6-[(4-chloro-2-fluorobenzyl)oxy]pyridin-2-yl}piperidin-1-yl)methyl]-1-(tetrahydro-2H-pyran-3-ylmethyl)-1H-benzimidazole-6-carboxylic acid], the concentration giving a half-maximal response (EC50) amounted to 0.17 µM and the Emax worked out at 77%.

Take `O=C(O)c1ccc2nc(CN3CCC(c4cccc(OCc5ccc(Cl)cc5F)n4)CC3)n(CCc3c[nH]cn3)c2c1` [Example 11A-41, 2-[(4-{6-[(4-chloro-2-fluorobenzyl)oxy]pyridin-2-yl}piperidin-1-yl)methyl]-1-[2-(1H-imidazol-4-yl)ethyl]-1H-benzimidazole-6-carboxylic acid]: the EC50 stood at 0.19 µM and the Emax was found to be 74%.

Consider `CN1CC(Cn2c(CN3CCC(c4cccc(OCc5ccc(Cl)cc5F)n4)CC3)nc3ccc(C(=O)O)cc32)CC1=O` (stereo not drawn) [Example 11A-42, 2-[(4-{6-[(4-chloro-2-fluorobenzyl)oxy]pyridin-2-yl}piperidin-1-yl]methyl]-1-[(1-methyl-5-oxopyrrolidin-3-yl)methyl]-1H-benzimidazole-6-carboxyl ic acid], for which the EC50 was determined as 0.19 µM.

`Cn1cc(Cn2c(CN3CCC(c4cccc(OCc5ccc(Cl)cc5F)n4)CC3)nc3ccc(C(=O)O)cc32)cn1` [Example 11A-43, 2-[(4-{6-[(4-chloro-2-fluorobenzyl)oxy]pyridin-2-yl}piperidin-1-yl)methyl]-1-[(1-methyl-1H-pyrazol-4-yl)methyl]-1H-benzimidazole-6-carboxylic acid]: the EC50 was 0.19 µM and the Emax was determined as 80%.

For `Cn1cc(CCn2c(CN3CCC(c4cccc(OCc5ccc(Cl)cc5F)n4)CC3)nc3ccc(C(=O)O)cc32)nn1` [Example 11A-44, 2-[(4-{6-[(4-chloro-2-fluorobenzyl)oxy]pyridin-2-yl}piperidin-1-yl)methyl]-1-[2-(1-methyl-1H-1,2,3-triazol-4-yl)ethyl]-1H-benzimidazole-6-carboxylic acid], the EC50 stood at 0.21 µM and the Emax amounted to 77%.

Consider `COC[C@H](C)n1c(CN2CCC(c3cccc(OCc4ccc(Cl)cc4F)n3)CC2)nc2ccc(C(=O)O)cc21` [Example 11A-45, 2-[(4-{6-[(4-chloro-2-fluorobenzyl)oxy]pyridin-2-yl}piperidin-1-yl)methyl]-1-[(2S)-1-methoxypropan-2-yl]-1H-benzimidazole-6-carboxylic acid], for which the EC50 was 0.29 µM and the Emax is 74%.

Turning to `COC[C@@H](C)n1c(CN2CCC(c3cccc(OCc4ccc(Cl)cc4F)n3)CC2)nc2ccc(C(=O)O)cc21` [Example 11A-46, 2-[(4-{6-[(4-chloro-2-fluorobenzyl)oxy]pyridin-2-yl}piperidin-1-yl]methyl]-1-[(2R)-1-methoxypropan-2-yl]-1H-benzimidazole-6-carboxylic acid], the EC50 stood at 0.3 µM and the Emax was 66%.

For the compound `Cc1cc(Cn2c(CN3CCC(c4cccc(OCc5ccc(Cl)cc5F)n4)CC3)nc3ccc(C(=O)O)cc32)on1` [Example 11A-47, 2-[(4-{6-[(4-chloro-2-fluorobenzyl)oxy]pyridin-2-yl}piperidin-1-yl]methyl]-1-[(3-methyl-1,2-oxazol-5-yl)methyl]-1H-benzimidazole-6-carboxylic acid], the EC50 was found to be 0.32 µM and the maximum response (Emax) turned out to be 79%.

Consider `O=C(O)c1ccc2nc(CN3CCC(c4cccc(OCc5ccc(Cl)cc5F)n4)CC3)n(CC3CCOCC3)c2c1` [Example 11A-49, 2-[(4-{6-[(4-chloro-2-fluorobenzyl)oxy]pyridin-2-yl}piperidin-1-yl)methyl]-1-(tetrahydro-2H-pyran-4-ylmethyl)-1H-benzimidazole-6-carboxylic acid], for which the EC50 was determined as 0.38 µM and the Emax amounted to 68%.

For the compound `O=C(O)c1ccc2nc(CN3CCC(c4cccc(OCc5ccc(Cl)cc5F)n4)CC3)n(CCN3CCOCC3)c2c1` [Example 11A-50, 2-[(4-{6-[(4-chloro-2-fluorobenzyl)oxy]pyridin-2-yl}piperidin-1-yl)methyl]-1-[2-(morpholin-4-yl)ethyl]-1H-benzimidazole-6-carboxylic acid], the EC50 is 0.38 µM and the Emax is 75%.

As for `O=C(O)c1ccc2nc(CN3CCC(c4cccc(OCc5ccc(Cl)cc5F)n4)CC3)n(CC3CC(F)(F)C3)c2c1` [Example 11A-51, 2-[(4-{6-[(4-chloro-2-fluorobenzyl)oxy]pyridin-2-yl}piperidin-1-yl)methyl]-1-[(3,3-difluorocyclobutyl)methyl]-1H-benzimidazole-6-carboxylic acid], the EC50 came out at 0.39 µM and the Emax was determined as 69%.

In the case of `CC(c1nncn1C)n1c(CN2CCC(c3cccc(OCc4ccc(Cl)cc4F)n3)CC2)nc2ccc(C(=O)O)cc21` (stereo not drawn) [Example 11A-52, 2-[(4-{6-[(4-chloro-2-fluorobenzyl)oxy]pyridin-2-yl}piperidin-1-yl)methyl]-1-[1-(4-methyl-4H-1,2,4-triazol-3-yl)ethyl]-1H-benzimidazole-6-carboxylic acid], the EC50 was determined as 0.44 µM and the Emax turned out to be 86%.

Consider `Cn1cnnc1CCn1c(CN2CCC(c3cccc(OCc4ccc(Cl)cc4F)n3)CC2)nc2ccc(C(=O)O)cc21` [Example 11A-53, 2-[(4-{6-[(4-chloro-2-fluorobenzyl)oxy]pyridin-2-yl}piperidin-1-yl)methyl]-1-[2-(4-methyl-4H-1,2,4-triazol-3-yl)ethyl]-1H-benzimidazole-6-carboxylic acid], for which the EC50 is 0.45 µM and the Emax stood at 71%.

As for `CCN1CCC[C@@H]1Cn1c(CN2CCC(c3cccc(OCc4ccc(Cl)cc4F)n3)CC2)nc2ccc(C(=O)O)cc21` [Example 11A-54, 2-[(4-{6-[(4-chloro-2-fluorobenzyl)oxy]pyridin-2-yl}piperidin-1-yl)methyl]-1-{[(2R)-1-ethylpyrrolidin-2-yl]methyl}-1H-benzimidazole-6-carboxylic acid], the EC50 came out at 0.5 µM and the Emax worked out at 69%.

`Cc1nc(Cn2c(CN3CCC(c4cccc(OCc5ccc(Cl)cc5F)n4)CC3)nc3ccc(C(=O)O)cc32)c(C)o1` [Example 11A-55, 2-[(4-{6-[(4-chloro-2-fluorobenzyl)oxy]pyridin-2-yl}piperidin-1-yl)methyl]-1-[(2,5-dimethyl-1,3-oxazol-4-yl)methyl]-1H-benzimidazole-6-carboxylic acid]: the EC50 was 0.52 µM and the Emax amounted to 80%.

In the case of `COC1CCN(CCn2c(CN3CCC(c4cccc(OCc5ccc(Cl)cc5F)n4)CC3)nc3ccc(C(=O)O)cc32)CC1` [Example 11A-56, 2-[(4-{6-[(4-chloro-2-fluorobenzyl)oxy]pyridin-2-yl}piperidin-1-yl)methyl]-1-[2-(4-methoxypiperidin-1-yl)ethyl]-1H-benzimidazole-6-carboxylic acid], the 50% effective concentration (EC50) is 1.1 µM and the Emax amounted to 47%.

Take `Cc1cc(C)n(CCn2c(CN3CCC(c4cccc(OCc5ccc(Cl)cc5F)n4)CC3)nc3ccc(C(=O)O)cc32)n1` [Example 11A-57, 2-[(4-{6-[(4-chloro-2-fluorobenzyl)oxy]pyridin-2-yl}piperidin-1-yl)methyl]-1-[2-(3,5-dimethyl-1H-pyrazol-1-yl)ethyl]-1H-benzimidazole-6-carboxylic acid]: the EC50 was determined as 1.1 µM and the Emax stood at 65%.

`Cc1cc(Cn2c(CN3CCC(c4cccc(OCc5ccc(Cl)cc5F)n4)CC3)nc3ccc(C(=O)O)cc32)[nH]n1` [Example 11A-58, 2-[(4-{6-[(4-chloro-2-fluorobenzyl)oxy]pyridin-2-yl}piperidin-1-yl)methyl]-1-[(3-methyl-1H-pyrazol-5-yl)methyl]-1H-benzimidazole-6-carboxylic acid]: the EC50 came to 1.1 µM and the maximal response (Emax) was determined as 81%.

In the case of `Cc1n[nH]c(Cn2c(CN3CCC(c4cccc(OCc5ccc(Cl)cc5F)n4)CC3)nc3ccc(C(=O)O)cc32)n1` [Example 11A-59, 2-[(4-{6-[(4-chloro-2-fluorobenzyl)oxy]pyridin-2-yl}piperidin-1-yl)methyl]-1-[(3-methyl-1H-1,2,4-triazol-5-yl)methyl]-1H-benzimidazole-6-carboxylic acid], the EC50 was 1.4 µM and the Emax was 97%.

Source of the values: patent US10208019B2, “GLP-1 receptor agonists and uses thereof” (Pfizer Inc., priority 2016, dated 2019).
